Measurements published in patent US5843941A, “Ras farnesyl transferase inhibitors” (Genentech, Inc., priority 1994, dated 1998).
Where two headings read alike, the source gives them in different places.

What was measured:
[1] = molecular target: CAAX farnesyltransferase (Rattus norvegicus, UniProt Q02293+Q04631); experiment: In vitro inhibition of CAAX farnesyltransferase; type: biochemical; design: purified to homogeneity from rat brain homogenates; from tissue; host or cells: rat brain; alternatively recombinant enzyme from a baculovirus expression system; conditions: Table D
In short: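 Native or recombinant (baculovirus-infected cells, Q-Sepharose purified) farnesyltransferase incubated 30 min at 37 °C. [3H]farnesyl transfer to p21H-ras measured by SDS/trichloroacetic acid precipitation, nitrocellulose filtration and scintillation counting.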

[2] = test system: farnesylated proteins F1, F2 and F3 in Met18b-2 cells; experiment: Inhibition of intracellular farnesylation in intact Met18b-2 cells, Triton-soluble proteins F1, F2, F3; type: cell-based, Chinese hamster; conditions: for EC90: Cricetulus griseus, read-out: EC 90% "B isomer"
Source text: (§1) To study farnesylation in intact cells we used Met18b-2 cells, a line of Chinese hamster ovary (CHO) cells that takes up [3H]mevalonate efficiently (see Faust, J., and Krieger, M. J. Biol. Chem. 262, 1966 (1987)) owing to the production of a mevalonate transport protein (see Kim, C. M., Goldstein, J. L., Brown, M. S. J. Biol. Chem. 267, 23113 (1992)). The [3H]mevalonate is converted by the cells into [3H]farnesyl pyrophosphate and [3H]geranylgeranyl pyrophosphate, which are then attached to proteins (Kim, C. M., Goldstein, J. L., Brown, M. S. J. Biol. Chem. 267, 23113 (1992)). In the assay, stock cultures of Met18b-2 cells were seeded at a density of 3-105 cells per 60 mm dish in 3 ml of medium A (Dulbecco's modified Eagle medium/Ham's F12 medium (1:1, v/v) containing 100 U/ml penicillin and 100 μg/ml streptomycin) supplemented with 5% (v/v) fetal calf serum (FCS). On day 3, each monolayer was refed with 1 ml medium A supplemented with 1% FCS (dialyzed against 0.15 M NaCl). At this point the cells were treated with 100 μM compactin (see Brown, M. S., Faust, J. R., Goldstein, J. L., Kaneko, I., and Endo, A. J. Biol. Chem. 253, 1121 (1978)) which blocks the synthesis of unlabeled mevalonate within the cells. Each compound was dissolved at 25 mM in DMSO/10 mM DTT immediately before use and 10 μl of this solution added directly. After 2 hr incubation at 37° C., each monolayer received 100 μCi [3H]mevalonate (60 Ci/mmol, American Radiolabeled Chemicals, Inc.) added in 100 μl of the medium A, and the incubation continued for 4 hr. The cells were harvested by rinsing three times with 3 ml of 50 mM Tris-HCl/0.15 M NaCl (pH 7.5). 300 μl of lysis buffer (0.5X Dulbecco's phosphate-buffered saline containing 1% Triton X-100, 5 μg/ml leupeptin, 5 μg/ml pepstatin, 0.5 mM phenylmethylsulfonyl fluoride, and 0.05 U/ml aprotinin) was added to each monolayer. After incubation on ice for 5 mon, the lysates were centrifuged 30 sec in a microfuge at 12,000 g. The resulting supernatant was tranferred to a new tube, and each pellet was resuspended in 60 μl of lysis buffer. Protein concentrations were determined using the BCA protein assay reagent (Pierce) according to the manufacturer's instructions. Detergent-soluble (supernatant) and -insoluble (pellet) samples were mixed with 2X SDS sample buffer (see Laemmli, U. K. Nature 227, 680 (1970)) and heated at 95° C. for 5 min before electrophoresis. Each lane contained 90 μg protein, and was run on a 12.5% SDS-polyacrylamide gel. The gel was dried, treated with ENTENSIFY (NEN-DuPont), and exposed to Kodak XOMAT-AR film for 9 h at -80° C. to allow visualization of all prenylated proteins. Migration of [14C]methylated molecular weight standards (Amersham) were used as markers.
The results of this assay are shown in FIG. 3, using a final concentration of 250 μM for each inhibitor. […] As shown in the figure, none of the control peptides or control benzodiazepine-peptideomimetics altered the prenylation of proteins in intact cells.
Using the same cells and procedures followed above for Example 125, we measured the dose dependence upon the inhibition of farnesylation in intact cells. […] Compound 37B inhibited the famesylation of F1-3 detectably at 10 μM, and almost completely at 25 μM.
In this manner, it is possible to obtain data regarding the comparative potency of these inhibitors upon the level of intracellular farnesylation. We have chosen to report the EC90% values for these inhibitors as the concentration required for a reduction in the Triton- soluble labelling (denoted F-1, F-2, and F-3) to 90% of control cells (untreated).

[3] = test system: nuclear lamins A and B in Met18b-2 cells; experiment: [3H]mevalonate labeling of farnesylated nuclear lamins in Met18b-2 cells; type: cell-based, Chinese hamster; conditions: 250 μM; FIG. 3
Source text: To study farnesylation in intact cells we used Met18b-2 cells, a line of Chinese hamster ovary (CHO) cells that takes up [3H]mevalonate efficiently (see Faust, J., and Krieger, M. J. Biol. Chem. 262, 1966 (1987)) owing to the production of a mevalonate transport protein (see Kim, C. M., Goldstein, J. L., Brown, M. S. J. Biol. Chem. 267, 23113 (1992)). The [3H]mevalonate is converted by the cells into [3H]farnesyl pyrophosphate and [3H]geranylgeranyl pyrophosphate, which are then attached to proteins (Kim, C. M., Goldstein, J. L., Brown, M. S. J. Biol. Chem. 267, 23113 (1992)). In the assay, stock cultures of Met18b-2 cells were seeded at a density of 3-105 cells per 60 mm dish in 3 ml of medium A (Dulbecco's modified Eagle medium/Ham's F12 medium (1:1, v/v) containing 100 U/ml penicillin and 100 μg/ml streptomycin) supplemented with 5% (v/v) fetal calf serum (FCS). On day 3, each monolayer was refed with 1 ml medium A supplemented with 1% FCS (dialyzed against 0.15 M NaCl). At this point the cells were treated with 100 μM compactin (see Brown, M. S., Faust, J. R., Goldstein, J. L., Kaneko, I., and Endo, A. J. Biol. Chem. 253, 1121 (1978)) which blocks the synthesis of unlabeled mevalonate within the cells. […] Protein concentrations were determined using the BCA protein assay reagent (Pierce) according to the manufacturer's instructions. […]

[4] = test system: low molecular weight GTP binding proteins (SMG) in Met18b-2 cells; experiment: [3H]mevalonate labeling of low molecular weight GTP binding proteins (SMG) in Met18b-2 cells; type: cell-based, Chinese hamster; conditions: 250 μM; FIG. 3
Source text: as §1, with “The resulting supernatant was tranferred to a new tube, and each pellet was resuspended in 60 μl of lysis buffer.” left out, “Detergent-soluble (supernatant) and -insoluble (pellet) samples were mixed with 2X SDS sample buffer (see Laemmli, U. K. Nature 227, 680 (1970)) and heated at 95° C. for 5 min before electrophoresis. Each lane contained 90 μg protein, and was run on a 12.5% SDS-polyacrylamide gel. The gel was dried, treated with ENTENSIFY (NEN-DuPont), and exposed to Kodak XOMAT-AR film for 9 h at -80° C. to allow visualization of all prenylated proteins. Migration of [14C]methylated molecular weight standards (Amersham) were used as markers.” left out

[5] = molecular target: T1, CAAX GG transferase (Rattus norvegicus, UniProt P53610+Q04631); experiment: Inhibition of CAAX GG transferase (geranylgeranyltransferase); type: biochemical; conditions: 31B (leucine) vs 27B (methionine); FIG. 2B
T1 construct: partially purified CAAX GG transferase; from tissue
Source text: FIG. 1 compares the inhibitory activity of compound 27B (denoted as BG269B in the figure) on protein prenyltransferases. […] Two other prenyltransferases, both of which transfer 20-carbon geranylgeranyl (GG) groups, have been identified in rat brain. One of thesse, CAAX GG transferase, attaches GG groups to proteins that terminate in CAAX sequences in which X is leucine.
The conditions used to assay the inhibition of CAAX farnesyltransferase are identical to those described above for the in vitro, assay described in Example 121. In FIG. 1B the assay mixture contained, in a final volume of 50 μl, 50 mM sodium Hepes (pH 7.2), 5 mM MgC12, 5 mM DTT, 0.3 mM Nonidet P-40, 0.2% octyl β-glucoside, 1% DMSO, 0.5 μM all trans [3H]geranylgeranyl pyrophosphate (33,000 dpm/pmol; ARC, Inc.), 5 μM recombinant p21^H-rasCVLL, 6.3 μg partially purified CAAX GG transferase (see Seabra, M. C., Reiss, Y., Casey, P. J., Brown, M. S., and Goldstein, J. L. Cell 268, 4055 (1993)) and varying concentrations of the indicated inhibitor. In FIG. 1C, the assay mixture contained in a final volume of 50 μl, 50 mM sodium Hepes (pH 7.2), 5 mM MgCl2, 5 mM DTT, 0.3 mM Nonidet P-40, 0.2% octyl β-D-glucoside, 1% DMSO, 0.5 μM all trans [3H]geranylgeranyl pyrophosphate (33,000 dpm/pmol; ARC, Inc.), 2 μM recombinant Rab1A, 2 ng each of purified Components A and B of Rab GG transferase (see Seabra, M. C., Goldstein, J. L., Sudhof, T. C., and Brown, M. S. J. Biol. Chem. 267, 14497 (1992)) and varying concentrations of the indicated inhibitor.
Each assay was carried out as described in Examples 121 and 122.

[6] = diastereomer A, read-out: EC50 (μM) "A"
[7] = diastereomer B, read-out: EC50 (μM) "B"

CAAX farnesyltransferase, sequence (Q02293 whole entry, one chain of several): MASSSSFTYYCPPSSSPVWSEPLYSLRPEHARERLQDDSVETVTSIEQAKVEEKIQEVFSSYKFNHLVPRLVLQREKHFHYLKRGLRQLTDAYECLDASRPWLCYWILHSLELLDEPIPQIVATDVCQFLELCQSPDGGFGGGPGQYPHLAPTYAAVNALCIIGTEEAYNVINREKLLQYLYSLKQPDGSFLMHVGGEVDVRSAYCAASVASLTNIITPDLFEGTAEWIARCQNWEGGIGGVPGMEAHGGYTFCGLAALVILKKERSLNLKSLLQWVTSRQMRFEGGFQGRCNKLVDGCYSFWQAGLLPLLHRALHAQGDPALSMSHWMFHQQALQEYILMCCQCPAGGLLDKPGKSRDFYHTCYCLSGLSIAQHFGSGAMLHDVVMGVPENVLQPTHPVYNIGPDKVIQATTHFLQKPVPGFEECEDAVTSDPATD
T1 sequence (P53610 whole entry, one chain of several): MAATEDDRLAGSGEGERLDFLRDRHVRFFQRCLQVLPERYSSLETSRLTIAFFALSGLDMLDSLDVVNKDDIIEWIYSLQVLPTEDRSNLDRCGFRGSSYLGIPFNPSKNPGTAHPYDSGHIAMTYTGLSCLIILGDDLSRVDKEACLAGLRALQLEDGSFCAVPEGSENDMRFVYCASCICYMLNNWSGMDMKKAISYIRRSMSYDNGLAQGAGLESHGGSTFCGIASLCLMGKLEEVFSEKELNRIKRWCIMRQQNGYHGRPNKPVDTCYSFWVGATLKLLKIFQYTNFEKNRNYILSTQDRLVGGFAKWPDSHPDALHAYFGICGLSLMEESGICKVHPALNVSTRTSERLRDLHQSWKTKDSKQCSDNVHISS

| SMILES | EC50 [1, 6] [µM] | EC50 [1, 7] [µM] | EC90 [2] [µM] | further results |
| --- | --- | --- | --- | --- |
| CCOC(=O)[C@H](CCSC)NC(=O)CN1C(=O)C(N(C)C(=O)C2CSC(C)N2)N=C(c2ccccc2)c2ccccc21 (stereo partly drawn) [compound 109, N-[[3-[(2-methylthiazolidine-4-carboxyl)methylamino]-2,3-dihydro-2-oxo-5-phenyl-1H-1,4-benzodiazepin-1-yl]acetyl]-L-methionine ethyl ester] | 3.1 | 0.1 | 10 | – |
| CC(C)C[C@H](NC(=O)CN1C(=O)C(N(C)C(=O)[C@@H](N)CSSC(C)(C)C)N=C(c2ccccc2)c2cc(Cl)ccc21)c1nnn[nH]1 (stereo partly drawn) [compound 114, N-[[3-[(2-amino-3-tert-butylthiomercapto-1-oxopropyl)methylamino]-2,3-dihydro-2-oxo-5-phenyl-7-chloro-1H-1,4-benzodiazepin-4-yl]acetyl]-L-leucine tetrazole] | – | 0.12 | 30 | – |
| CN(C(=O)[C@@H](N)CSSC(C)(C)C)C1N=C(c2ccccc2)c2ccccc2N(CC(=O)N[C@@H](Cc2ccccc2)C(=O)OC2CCCCC2)C1=O (stereo partly drawn) [compound 117, N-[[3-[(2-amino-3-tert-butylthiomercapto-1-oxopropyl)methylamino]-2,3-dihydro-2-oxo-5-phenyl-1H-1,4-benzodiazepin-1-yl]acetyl]-L-phenylalanine cyclohexyl ester] | – | – | 3 | EC50 ([1]; EC50 (μM) "B", diastereomer B): 1.6 µM |
| CN(C(=O)[C@@H](N)CS)C1N=C(c2ccccc2)c2cc(Cl)ccc2N(Cc2ccc(C(F)(F)F)cc2)C1=O (some centres unmarked) [compound 106, N-[[3-[(2-amino-3-mercapto-1-oxopropyl)methylamino]-2,3-dihydro-2-oxo-5-phenyl-7-chloro-1H-1,4-benzodiazepin-1-yl]methyl]-4-trifluoromethylbenzene] | 0.65 | 0.018 | 50 | – |
| CN(C(=O)[C@@H](N)CSSC(C)(C)C)C1N=C(c2ccccc2)c2cc(Cl)ccc2N(CC(=O)N[C@@H](Cc2ccccc2)C(N)=O)C1=O (stereo partly drawn) [compound 115, N-[[3-[(2-amino-3-tert-butylthiomercapto-1-oxopropyl)methylamino]-2,3-dihydro-2-oxo-5-phenyl-7-chloro-1H-1,4-benzazepin-1-yl]acetyl]-L-phenylalanine amide] | > 3 | 0.1 | 50 | – |
| CSCC[C@H](NC(=O)CN1C(=O)C(N(C)C(=O)[C@@H](N)CSSC(C)(C)C)N=C(c2ccccc2)c2cc(Cl)ccc21)C(=O)OC1CCCCC1 (stereo partly drawn) [compound 111, N-[[3-[(2-amino-3-tert-butylthiomercapto-1-oxopropyl)methylamino]-2,3-dihydro-2-oxo-5-phenyl-7-chloro-1H-1,4-benzodiazepin-1-yl]acetyl]-L-methionine cyclohexyl ester] | > 3 | 1.4 | 2 | – |
| CN(C(=O)[C@@H](N)CS)C1N=C(c2ccccc2)c2cc(Cl)ccc2N(Cc2ccc(F)cc2)C1=O (some centres unmarked) [compound 108, N-[[3-[(2-amino-3-mercapto-1-oxopropyl)methylamino]-2,3-dihydro-2-oxo-5-phenyl-7-chloro-1H-1,4-benzodiazepin-1-yl]methyl]-4-fluorobenzene] | 0.0018 | 0.0018 | 50 | – |
| CN(C(=O)[C@@H](N)CSSC(C)(C)C)C1N=C(c2ccccc2)c2cc(Cl)ccc2N(CC(=O)N[C@@H](Cc2ccccc2)C(=O)OC2CCCCC2)C1=O (stereo partly drawn) [compound 120, N-[[3-[(2-amino-3-tert-butylthiomercapto-1-oxopropyl)methylamino]-2,3-dihydro-2-oxo-5-phenyl-7-chloro-1H-1,4-benzodiazepin-1-yl]acetyl]-L-phenylalanine cyclohexyl ester] | – | – | 5 | EC50 ([1]; EC50 (μM) "A", diastereomer A): > 3 µM; EC50 ([1]; EC50 (μM) "B", diastereomer B): > 3 µM |
| CC(C)C[C@H](NC(=O)CN1C(=O)C(N(C)C(=O)[C@@H](N)CS)N=C(c2ccccc2)c2ccccc21)C(=O)O (single isomer, unassigned) [31B, N-[[3-[(2-amino-3-mercapto-1-oxopropyl)methylamino]-2,3-dihydro-2-oxo-5-phenyl-1H -1,4-benzodiazepin-1-yl]acetyl]-L-leucine] | – | – | – | labeling of farnesylated lamins (F-NL) [3]: reduced moderately the labeling of the farnesylated lamins; labeling of Triton-soluble farnesylated proteins (F1 to F3) ([2]; 250 μM, FIG. 3): markedly decreased the labeling of all three Triton-soluble farnesylated proteins (F1 to F3); effect on low molecular weight GTP binding proteins (SMG) [4]: little effect on the low molecular weight GTP binding proteins; fold more sensitivity of CAAX geranylgeranyltransferase to leucine-terminated inhibitor [5]: 5 fold |
| COC(=O)[C@H](CCSC)NC(=O)CN1C(=O)C(N(C)C(=O)[C@@H](N)CSSC(C)(C)C)N=C(c2ccccc2)c2ccccc21 (stereo partly drawn) [compound 110, N-[[3-[(2-amino-3-tert-butylthiomercapto-1-oxopropyl)methylamino]-2,3-dihydro-2-oxo-5-phenyl-1H-1,4-benzodiazepin-1-yl]acetyl]-L-methionine methyl ester] | > 1.5 | > 1.5 | 10 | – |
